Consider 5 molecules from US20170173011A1, “METHODS OF TREATING A BRUTON'S TYROSINE KINASE DISEASE OR DISORDER” (Celgene Avilomics Research, Inc., priority 2014, published 2017).

Assay [1] concerns NZBxNZW F1 mouse SLE model. As to the kind of experiment: anti-dsDNA autoantibody quantitation by ELISA in serum, NZBxNZW F1 mouse SLE model. Format: in vivo. As for the experimental part:
(§1) Compound 1 besylate was tested in the NZBxNZW Fl mouse SLE model. Treatment efficacy of Compound 1 besylate in this model was compared with cyclophosphamide, and a vehicle control. Principal end measures were autoantibodies against double stranded DNA (dsDNA) and protein in the urine.
Female NZBxNZW FI mice were housed in filter-top Nalgene cages, maintained on a 12-hour light/12-hour dark cycle with a room temperature of 70° F.+/−4° F. Mice were allowed to acclimate to the laboratory environment for approximately 5-7 days to ascertain their continued good health. Irradiated laboratory rodent chow and autoclaved water were supplied ad libitum.
Eighty NZBxNZW F1 female mice ˜12 weeks in age were obtained from Jackson Laboratory and were acclimatized for one week. After the acclimatization period was complete, each mouse that was successfully acclimatized was ear tagged and body weight recorded.
An initial bleed was performed prior to treatment initiation and serum prepared from the blood sampled. Serum samples were stored at −80° C. Following treatment initiation, blood was collected once every two weeks during the in-life phase for subsequent serum preparation.
(§2) Treatment was administered when the mice reached ˜20 weeks of age as follows:
(§3) Proteinuria: Urine was tested once every two weeks when the animals reached ˜13 weeks of age. Urine analysis was preformed midweek at approximately the same time of the day. Weekly urine analysis commenced when the animals reached the age of ˜18 weeks. Proteinuria levels were evaluated using Albustix urine strips. Serum was collected via collection of blood from tail bleeds when animals reached 13 weeks in age, then prior to initiating the treatment and thereafter twice a month.
Results. Individual autoantibody development in NZBxNZW Fl mice over time is depicted in FIG. 1A. Serum samples were collected from vehicle treated mice at the times indicated and an anti-dsDNA quantitation by ELISA performed. During the course of measurement from 18 weeks of age to 36 weeks of age, six (6) out of ten (10) mice developed autoantibodies against dsDNA greater than 400 KU/ml during the course of disease development and eight out of ten developed dsDNA antibodies greater than 200 kU/ml.
On the technique in general: An ELISA detects its analyte on a solid surface through an enzyme-linked reagent.

For assay [2], the system named is NZBxNZW F1 mouse SLE model. As to the kind of experiment: urine protein (proteinuria, Albustix strips) in NZBxNZW F1 mouse SLE model. The format is in vivo. As to the method: as §1
Urine analysis was initiated when the animals reached 13-14 weeks of age. Initially urine analysis was performed once in two weeks. When the animals reached 18-19 weeks of age, weekly urine analysis for proteinuria levels was performed using Albustix® Reagent strips for Urinalysis (Bayer, Inc). Results were scored on a 0-4 scale using the following criteria:
When the mice reached 19 weeks of age, all animals were evaluated with respect to their proteinuria scores. Based on that evaluation, […] mice were selected and assigned to 6 groups of 10 mice each and one group of 5 mice. The mice were assigned such that the distributions of proteinuria scores among all groups were as uniform as possible.
as §2, §3

The subject of a further assay is NZBxNZW F1 mice. To be noted: literature; cited from earlier work.
The test system of a further assay is B6.sle1 mouse SLE model. As to conditions: literature (Hutcheson et al.); reduced anti histone, anti ssDNA, kidney lymphocytes and renal damage; cited from earlier work.

As for `C=CC(=O)Nc1cccc(Nc2nc(Nc3ccc(OCCOC)cc3)ncc2F)c1` [Compound 1 besylate, N-(3-(5-fluoro-2-(4-(2-methoxyethoxy)phenylamino)pyrimidin-4-ylamino)phenyl)acrylamide besylate], the “number of treated mice that developed dsDNA antibodies over 400 kU/ml” value in assay [1] (50 mg/kg BID PO for 12 weeks, vehicle: six (6) of ten (10)) is reported as 2 of ten (10) treated mice. Also, the “number of mice with nearly complete suppression of anti-dsDNA development” value in assay [1] (50 mg/kg BID PO, of ten treated mice) was found to be 6 mice. For the same molecule, the “anti-dsDNA autoantibody development (FIG. 1C)” value in assay [1] (50 mg/kg BID PO, weeks 29 through 33) is “reduced anti-dsDNA autoantibody development”. For the same molecule, the “number of mice with blunted anti-dsDNA responses at the end of the study” value in assay [1] (50 mg/kg BID PO, weeks 35 and 36, of ten treated mice) turned out to be 2 mice. The “protein levels measured in the urine relative to vehicle (FIG. 2)” value in assay [2] (50 mg/kg BID PO for 12 weeks) and in assay [2] (100 mg/kg QD PO for 12 weeks) was “reduced protein levels” throughout. For the same molecule, the “urine protein, dose dependence” value in assay [2] (across dose groups) is “dose-associated trend of reduced urine protein”.
Regarding `O=P1(N(CCCl)CCCl)NCCCO1` (centres unmarked) [Cyclophophamide, Cyclophosphamide], the “effect on lupus nephritis / SLE in NZBxNZW F1 mice” value (from here on “effect on lupus nephritis / SLE”) with NZBxNZW F1 mice is reported as “inhibit lupus nephritis”.
Turning to `C=CC(=O)N1CCC[C@@H](n2nc(-c3ccc(Oc4ccccc4)cc3)c3c(N)ncnc32)C1` [PCI 32765/Ibrutinib], the “efficacy in B6.sle1 mouse SLE model” value with B6.sle1 mouse SLE model was “efficacious”.
Regarding `N#CN1CCCC(n2nc(-c3ccc(Oc4ccc(F)cc4F)cc3)c(C(N)=O)c2N)C1` (centres unmarked) [PF-06250112], the “effect on lupus nephritis / SLE” value in the assay with NZBxNZW F1 mice is given as “efficacious”.
For the molecule `CN1CCN(c2ccc(Nc3cc(-c4cccc(-n5ccc6cc(C7CC7)cc(F)c6c5=O)c4CO)cn(C)c3=O)nc2)CC1` [RN486], the “effect on lupus nephritis / SLE” value in the assay with NZBxNZW F1 mice was “efficacious”.
